Results taken from article PMC7686313, “Phase 1 study of mTORC1/2 inhibitor sapanisertib (TAK-228) in advanced solid tumours, with an expansion phase in renal, endometrial or bladder cancer” (British Journal of Cancer, 2020).

Assays:
Assay type in all cases: in vivo, human
[1] = test system: p4EBP1, pS6, pPRAS40 and pNDRG1 (TORC1/2 biomarkers); assay: Pharmacodynamics in paired tumour biopsies; details: five patients with paired tumour samples; baseline vs cycle 1, week 2
Method: (§1) The tissue PK and PD of sapanisertib were investigated in skin and tumour biopsies. During dose escalation, 3-mm core skin biopsies were collected predose and on any day from 8–15 (3 h postdose) of cycle 1 for immunohistochemistry (IHC) assessment of mTORC1 downstream effects (p4EBP1, pS6) and pNDRG1 (Mosaic Laboratories, Lake Forest, CA). […] Archival tumour tissues for assessment of prognostic markers were collected at baseline.
(§2) During dose-escalation, the PD effect of sapanisertib on downstream effectors of TORC1 (p4EBP1 and pS6) and TORC2 (pPRAS40 and pNDRG1) was measured in skin-tissue biopsies from 88 patients collected at baseline and days 8–15 (3 h postdose) of cycle 1. […] PD data in tumour tissue were limited due to the small number of samples. For the five patients with paired tumour samples available for review (biopsies at baseline and cycle 1, week 2), the levels of p4EBP1, pS6, pPRAS40 and pNDRG1 decreased after sapanisertib treatment (Supplementary Fig. 4).

[2] = test system: p4EBP1, pS6, pPRAS40 and pNDRG1 (TORC1/2 biomarkers); assay: Pharmacodynamics in skin biopsies (IHC); details: doses of ≥4 mg; baseline vs days 8–15 (3 h postdose) of cycle 1
Method: as §1, §2

advanced solid tumours = assay: Tumour response according to RECIST v1.1, advanced solid tumours; details: for Duration of partial response (PR): dose-escalation
Method: Patients who received ≥1 dose of sapanisertib were included in the safety population. The response-evaluable population included patients who received ≥1 dose of sapanisertib, had measurable disease at baseline, and had ≥1 postbaseline assessment. In the dose-escalation phase, the evaluable population included patients who received ≥75% of the planned sapanisertib doses in cycle 1 or experienced a DLT. Response was assessed according to the RECIST v1.1[24] after every two treatment cycles. Adverse events (AEs) were assessed using the National Cancer Institute Common Terminology Criteria for Adverse Events, v4.0. Patients were provided with a home blood-glucose meter to monitor their fasting predose blood-glucose measurements to assess hyperglycaemia as an on-target AE and PD marker.

[3] = dose-escalation QD 2–7 mg (n = 21)
[4] = dose-escalation QD × 3d 6–20 mg (n = 27)
[5] = dose-escalation QD × 5d 7–13 mg (n = 18)
[6] = dose-escalation QW 7–40 mg (n = 25)

## CC(C)n1nc(-c2ccc3oc(N)nc3c2)c2c(N)ncnc21 [Sapanisertib]
[1]
  Levels of p4EBP1, pS6, pPRAS40 and pNDRG1 in tumour: decreased
[2]
  Change in p4EBP1, pS6, pPRAS40 and pNDRG1 in skin: Treatment-related decreases
Advanced solid tumours; both phases
  Patients achieving PR: nine
Advanced solid tumours; both phases, 40 mg QW
  Patients with CR: One
Advanced solid tumours; [3]
  Best overall response CR: 0 n (%)
  Best overall response PD: 10 (48) n (%)
  Best overall response PR: 0 n (%)
  Best overall response SD < 6 months: 9 (43) n (%)
  Best overall response SD ≥ 6 months: 2 (10) n (%)
  CBR (CR + PR + SD ≥ 6 months): 2 (10) n (%)
  ORR (CR + PR): 0 n (%)
Advanced solid tumours; [4]
  Best overall response CR: 0 n (%)
  Best overall response PD: 14 (52) n (%)
  Best overall response PR: 0 n (%)
  Best overall response SD < 6 months: 12 (44) n (%)
  Best overall response SD ≥ 6 months: 1 (4) n (%)
  CBR (CR + PR + SD ≥ 6 months): 1 (4) n (%)
  ORR (CR + PR): 0 n (%)
Advanced solid tumours; [5]
  Best overall response CR: 0 n (%)
  Best overall response PD: 12 (67) n (%)
  Best overall response PR: 1 (6) n (%)
  Best overall response SD < 6 months: 4 (22) n (%)
  Best overall response SD ≥ 6 months: 1 (6) n (%)
  CBR (CR + PR + SD ≥ 6 months): 2 (11) n (%)
  ORR (CR + PR): 1 (6) n (%)
Advanced solid tumours; [6]
  Best overall response CR: 0 n (%)
  Best overall response PD: 13 (52) n (%)
  Best overall response PR: 2 (8) n (%)
  Best overall response SD < 6 months: 9 (36) n (%)
  Best overall response SD ≥ 6 months: 1 (4) n (%)
  CBR (CR + PR + SD ≥ 6 months): 3 (12) n (%)
  ORR (CR + PR): 2 (8) n (%)
Advanced solid tumours; one patient with carcinoid tumour receiving 10 mg QD × 5dQW
  Duration of partial response (PR): > 32 months
Advanced solid tumours; two patients with RCC receiving 15 mg QW and 40 mg QW
  Duration of partial response (PR): > 32 months
